Assay results as given in publication PMC9883013 (eLife, 2023).
Where “and” joins values, the source holds several entries; their conditions need not be identical. Equal values may be shown once. Entries after “also recorded” stand apart in the source; their conditions may differ. Read-outs that look alike come from different tables or passages of the source.

Assays:
[1] = target: T1, SERT (Homo sapiens, UniProt P31645); assay: Inhibition of [3H]citalopram binding to membranes from HEK293 cells expressing GFP-SERT
T1 construct: expressed in transfected cells
Method: Membranes were prepared from HEK293 cells stably expressing GFP-SERT. […] The pellets were resuspended in a buffer containing 20 mM HEPES, 2 mM MgCl2, 1 mm EDTA, pH adjusted to 7.4 with NaOH, subjected to freeze-thaw cycles in liquid nitrogen and sonicated on ice three times for 10 s with 30 s intervals. Following another centrifugation step, the whole-cell membrane pellets were resuspended in buffer and protein concentration was estimated by dye binding (Coomassie Brilliant Blue R-250; Bio-Rad, USA). […] Binding reactions were also done in the presence of 120 mM K^+ buffer (buffer composition: 20 mM Tris-HCl, pH 7.4, 1 mM EDTA, 2 mM MgCl2, 120 mM KCl; 4 mM Na^+ were present from the carry-over of HEPES·NaOH and from Na·EDTA). For binding reactions under these conditions, 7–8 µg of membranes were used to improve the dynamic range of binding. The binding reactions were terminated by harvesting the membranes on glass fiber filters precoated with polyethylenimine and rapid washing with ice-cold wash buffer (10 mM Tris·HCl, pH 7.4, 120 mM NaCl, 2 mM MgCl2). The radioactivity trapped on the filters was quantified by liquid scintillation counting. Nonspecific binding was measured in the presence of 10 µM paroxetine.

[2] = target: T2, wild-type GFP-tagged human SERT (Homo sapiens, UniProt P31645); assay: Whole-cell patch clamp recordings of currents through SERT; assay type: cell-based; conditions: for transient peak current on application of the compound: 100 µM, absence of substrate
T2 construct: expressed in transfected cells
Method: HEK293 cells stably expressing wild-type GFP-tagged human SERT were seeded at low density on poly-D-lysine-coated dishes. Twenty hr after seeding, these cells were subjected to patch clamp recordings in the whole-cell configuration. In most instances cells were continuously maintained in an external solution containing 140 mM NaCl, 3 mM KCl, 2.5 mM CaCl2, 2 mM MgCl2, 20 mM glucose, and 10 mM HEPES (pH adjusted to 7.4 with NaOH) and the drugs were diluted therein. The internal solution in the patch pipette contained 133 mM potassium gluconate (CH2OH(CHOH)4COOK), 5.9 mM NaCl, 1 mM CaCl2, 0.7 mM MgCl2, 10 mM HEPES, 10 mM EGTA (pH adjusted to 7.2 with KOH). Drugs were applied using a 4-tube ALA perfusion manifold (NPI Electronic GmbH, Germany) and a DAD-12 superfusion system (Adams & List, Westbury, NY, USA) allowing for complete solution exchange around the cells within 100 ms. Current amplitudes and associated kinetics were quantified using Clampfit 10.2 software. Passive holding currents were subtracted, and the traces were filtered using a 100 Hz digital Gaussian low-pass filter.

[3] = target: T3, SERT-PG^601,602AA (Homo sapiens, UniProt P31645, G602A/P601A); assay: Functional rescue (pharmacochaperoning) of folding-deficient SERT mutant, [3H]5-HT uptake after 24 hr preincubation; assay type: cell-based; conditions: for [3H]5-HT uptake normalized to untreated wild-type SERT: 30 µM for 24 hr, 0.1 µM [3H]5-HT, untreated mutant 14.8 ± 5.3%; for Emax: read-out: EMAX of pharmacochaperoning (rescued uptake, % of transport velocity in cells expressing wild-type SERT)
T3 construct: expressed in transfected cells; host or cells: HEK293 (ATCC CRL-1573), transient PEI transfection

[4] = system: YFP-tagged human SERT-PG^601,602AA in serotonergic neurons; assay: Delivery of mutant transporter to the fan-shaped body in transgenic flies fed with drug; assay type: in vivo, Drosophila melanogaster; conditions: 100 µM in food for 48 hr, 3-day old male flies
Description: (§1) The transgenic UAS reporter lines for YFP-tagged human wild-type SERT and SERT-PG^601,602AA were generated using the pUAST-attB vector (gift from Drs Bischof and Basler, University of Zürich) and injected into embryos of ZH-86Fb flies (Bloomington stock no. 24749). Positive transformants were isolated and selected. TRH-T2A-Gal4 (Bloomington stock no. 84694) was used to drive the expression of transporters in serotonergic neurons. […] The brains of these flies were then imaged using confocal microscopy. All flies were kept at 25°C, and all crosses were performed at 25°C.
(§2) Adult fly brains were dissected in PBS and fixed in 2% paraformaldehyde in PBS for 1 hr at room temperature. Brains were then washed three times in 0.1% Triton X-100 in PBS for 20 min on a shaker. Blocking was performed in 10% goat serum for 1 hr at room temperature on a shaker. Brains were then incubated in primary antibody overnight in PBS containing 3% BSA and 0.3% Triton X-100 at 4°C on a shaker. The rabbit polyclonal IgG directed against GFP (1:1000 dilution; A-11122, Invitrogen) and anti-serotonin antibody (S5545, Sigma-Aldrich) were used as primary antibodies. After three washes for 20 min with PBS containing 0.1% Triton X-100, the brains were incubated overnight at 4°C with a secondary antibody in PBS containing 0.3% Triton X-100 on a shaker. […]

[5] = system: YFP-tagged wild-type human SERT in serotonergic neurons; assay: Localization of wild-type transporter in the fan-shaped body in transgenic flies fed with drug; assay type: in vivo, Drosophila melanogaster; conditions: 100 µM in food for 48 hr, flies harboring wild-type human SERT
Description: as §1, §2

[6] = target: WT-SERT (Homo sapiens, UniProt P31645); assay: [3H]5-HT uptake by cells transiently expressing WT-SERT after 24 hr preincubation; conditions: 30 µM for 24 hr; 0.1 µM [3H]5-HT
[7] = target: T4, wild-type human YFP-tagged SERT (Homo sapiens, UniProt P31645); assay: Saturation kinetics (KM, Vmax) of 5-HT uptake by SERT after preincubation with inhibitor
[8] = target: T3, SERT-PG^601,602AA; assay: Immunoblotting of glycosylation state (mature vs core-glycosylated band) of the SERT mutant; assay type: cell-based
[9] = system: NCCc1c[nH]c2ccc(O)cc12; assay: cells, lysate or membranes; conditions: other: absence of any inhibitor; pH 7.4
[10] = target: T2, wild-type GFP-tagged human SERT; assay: Whole-cell patch clamp recordings of currents through SERT; assay type: cell-based; conditions: 100 µM pre-applied for 1 s or 3 s in the absence of 5-HT; internal 150 mM NaCl
[11] = target: T4, wild-type human YFP-tagged SERT; assay: Inhibition of SERT-mediated [3H]5-HT uptake in HEK293 cells stably expressing YFP-SERT; assay type: cell-based; set-up: expressed in transfected cells
[12] = preincubation with 3 µM inhibitor
[13] = preincubation with 10 µM inhibitor
[14] = preincubation with 30 µM inhibitor
[15] = inhibition of 10 µM 5-HT-induced steady current

CCC1CC2CC3c4[nH]c5ccc(O)cc5c4CCN(C2)C13 (stereo not drawn) [noribogaine, reference compound]
potency in inhibiting [3H]citalopram binding in 120 mM KCl compared with 120 mM NaCl [1]: distinct binding preference was not obvious | transient peak current on application of the compound [2]: induced transient peak currents | [3H]5-HT uptake normalized to untreated wild-type SERT [3]: 71.9 ± 6.4% | Emax [3]: 69.5% | delivery of the mutant transporter to the presynaptic territory (fan-shaped body) [4]: partially restored the delivery of the mutant transporter to the presynaptic territory | effect on level of fluorescence in the fan-shaped body [5]: did not have any appreciable effect | [3H]5-HT uptake normalized to untreated wild-type SERT [6]: 93.5 ± 28.8% | mode of inhibition of substrate uptake by SERT [7]: non-competitive | VMAX of 5-HT transport by SERT ([7]; preincubation with 1 µM inhibitor): 82.4 pmol min^–1 10^–6 cells | VMAX of 5-HT transport by SERT [7, 12]: 39.9 pmol min^–1 10^–6 cells | VMAX of 5-HT transport by SERT [7, 13]: 19.5 pmol min^–1 10^–6 cells

COC(=O)[C@H]1[C@@H](OC(=O)c2ccccc2)C[C@@H]2CC[C@H]1N2C [cocaine]
potency in inhibiting [3H]citalopram binding in 120 mM KCl compared with 120 mM NaCl [1]: substantially less potent (by an order of magnitude) | kapp of current inhibition, level at which it leveled off ([2]; 10 µM 5-HT-induced steady current, –60 mV): about 2 s^–1 | transient peak current on application of the compound [2]: induced transient peak currents | effect on SERT species carrying mature glycans ([8]; 30 µM (saturating concentration), 24 hr): did not cause any appreciable increase | [3H]5-HT uptake normalized to untreated wild-type SERT [6]: 111.4 ± 4.2% | mode of inhibition of substrate uptake by SERT [7]: competitive | VMAX of 5-HT transport by SERT [7, 12]: 118.3 pmol min^–1 10^–6 cells | VMAX of 5-HT transport by SERT [7, 13]: 121.1 pmol min^–1 10^–6 cells | VMAX of 5-HT transport by SERT [7, 14]: 120.1 pmol min^–1 10^–6 cells

wild-type human YFP-tagged SERT (Homo sapiens)
Km [9]: 2.3 µM

O=CNC(Cc1ccc2c(c1)OCO2)Cc1ccc2c(c1)OCO2 [ECSI#6, N-formyl-1,3-bis (3,4-methylenedioxyphenyl)-prop-2-yl-amine]
fold more potent in displacing [3H]citalopram in 120 mM KCl than in 120 mM NaCl [1]: about 10 fold | binding relative to serotonin (Dixon plots) ([1]; 1 and 10 µM serotonin): mutually exclusive | IC50 ([1]; IC50(1 µM 5-HT), inhibition of [3H]citalopram binding, 120 mM Na+, 1 µM 5-HT): 28.6 µM | IC50 ([1]; IC50(10 µM 5-HT), inhibition of [3H]citalopram binding, 120 mM Na+, 10 µM 5-HT): 60 µM | IC50 ([1]; IC50(no 5-HT), inhibition of [3H]citalopram binding, 120 mM Na+, 3 nM [3H]citalopram, no 5-HT): 16 µM | IC50 ([1]; buffer with 120 mM K+, read-out: IC50(120 K+), inhibition of [3H]citalopram binding): 4.18 µM and 5 µM | IC50 ([1]; buffer with 120 mM Na+ (Na+/K+ comparison), read-out: IC50(120 Na+), inhibition of [3H]citalopram binding): 46.2 µM | affinity estimate, fold lower than the KD of 1 µM required for ToNaS ([1]; presence of 10 µM 5-HT): > 30 fold | IC50 ([2]; 30 µM 5-HT, ECSI#6 co-applied, read-out: IC50 of block of the 5-HT-induced steady current): 4.5 µM and ~5 µM | effect on 5-HT-induced steady current ([2]; 100 µM in continuous presence of 10 µM 5-HT): complete suppression of the current | effect of intracellular application on 5-HT-induced current amplitude ([2]; 100 µM in the electrode solution, 30 µM 5-HT): only had a modest effect, if any; also recorded: did not cause an appreciable current block | ratio of the second and first pulse (peak 2/peak 1) ([2]; 100 µM pre-applied for 1 s or 3 s): always close to one | transient peak current on application of the compound [2]: failed to do so | koff (y-intercept of kapp vs concentration) [2, 15]: 1.7±0.5 s^–1 | kon (slope of kapp vs concentration) [2, 15]: 2.1*10^4±3.5*10^3 M^–1 s^–1 | [3H]5-HT uptake normalized to untreated wild-type SERT [3]: 56.5 ± 5.1% | EC50 ([3]; 24 hr preincubation, read-out: EC50 for pharmacochaperoning (rescued uptake)): 2.9 µM | Emax [3]: 52% | EC50 [8]: 0.44 µM | EMAX of ratio of mature (M) to core-glycosylated band (C) ([8]; 24 hr treatment, densitometry, corrected for Gβ): 1.42 AU | delivery of the mutant transporter to the presynaptic territory (fan-shaped body) [4]: partially restored the delivery of the mutant transporter to the presynaptic territory | effect on level of fluorescence in the fan-shaped body [5]: did not have any appreciable effect | effect of pre-application on 5-HT-induced peak current amplitude [10]: did not result in the reduction of the peak current amplitude | IC50 ([11]; IC50(0.1), inhibition of [3H]5-HT uptake, 0.1 µM [3H]5-HT, absence of additional unlabeled 5-HT): 441 µM | IC50 ([11]; IC50(1), inhibition of [3H]5-HT uptake, 0.1 µM [3H]5-HT, presence of 1 µM unlabeled 5-HT): 74.1 µM | IC50 ([11]; IC50(3), inhibition of [3H]5-HT uptake, 0.1 µM [3H]5-HT, presence of 3 µM unlabeled 5-HT): 25.6 µM | IC50 ([11]; IC50(10), inhibition of [3H]5-HT uptake, 0.1 µM [3H]5-HT, presence of 10 µM unlabeled 5-HT): 19.3 µM | IC50 ([11]; low 5-HT concentration (0.1 µM), read-out: IC50 value in the uptake assay): ~500 µM | [3H]5-HT uptake normalized to untreated wild-type SERT [6]: 103.3 ± 11.3% | mode of inhibition of substrate uptake by SERT [7]: uncompetitive inhibition | VMAX of 5-HT transport by SERT [7, 13]: 89.5 pmol min^–1 10^–6 cells | VMAX of 5-HT transport by SERT [7, 14]: 49.9 pmol min^–1 10^–6 cells | VMAX of 5-HT transport by SERT ([7]; preincubation with 100 µM inhibitor): 20.8 pmol min^–1 10^–6 cells
